The conditions of data set [1]: cited from earlier work.
A further data set has as its system A375 melanoma cells. Nature of the data set: cells. It counts as cell-based, human. The following applies: XTT, 24 h incubation, read-out: IC50, A375 melanoma cell viability. The protocol:
A375 cells were seeded in 96 well plates at a density of around 10^5 cells per well in 95 μL of MEM medium and incubated for 24 h, Cells were treated with 5 μL of drugs in a final concentration of 0, 0.3 nM, 1 nM, 3 nM, 10 nM, 30 nM, 100 nM and 300 nM for 24 h. XTT solution was prepared by dissolving 4 mg XTT in 4 mL MEM medium. PMS solution was prepared by dissolving 3 mg of PMS in 1 mL of phosphate buffer saline (PBS). 10 μL of PMS solution was added to 4 mL of XTT solution, and 25 μL of the PMS/XTT mixture was added to each well. The plate was incubated at 37 ° C. for another 2 h culture. Absorbance was measured at 450 nm using a pQuant Universal Microplate Reader (Bio-Tek instruments, Inc., Winooski, VT). Absorbance from no-cells control was subtracted and the percentage of cell viability was calculated as the percentage of absorbance relative to cells treated with medium.

Another data set has as its target T1, human MC1R (Homo sapiens, UniProt Q01726).
T1 construct: expressed in transfected cells; host or cells: HEK293 (stably transfected)
Nature of the data set: Competitive binding assay with 125I labelled NDP-α-MSH on whole cells, MC1R. The following applies: for Ki: HEK293 cells overexpressing human MC1R, 125I NDP-α-MSH; for displacement of NDP-α-MSH from MC1R: within micromolar range concentration.

Data set [2] relates to HEK293 kidney epithelial cells. Nature of the data set: Live-cell confocal microscopy, fluorescence uptake by HEK293 cells. It counts as cell-based. The following applies: 3 μM, 2.5 h. The protocol:
(§1) 1 mL of A375 or HEK293 cell suspension (˜5×10^4 cells) were seeded in 35 mm No. 1.5 coverslip glass-bottomed microwell dish (MatTek) and cultured overnight. Cells were gently washed with PBS twice and treated with compound 2 (3 μM) with or without MT-II (30 μM) in phenol red-free, HEPES-supplemented DMEM. After incubation at 37° C. for indicated time, cells were washed three times with PBS before imaging. Images were taken with Zeiss LSM880 inverted confocal microscope with either bright field or laser at […] with 2% laser power and Plan-Apochromat 63×/1.4 Oil DIC M27 objective.

Data set [3] concerns A375 malignant melanoma cells. Nature of the data set: Live-cell confocal microscopy, fluorescence uptake by A375 cells. The class given is cell-based, human. The protocol:
as §1

For data set [4] the following is noted: linear peptide; cited from earlier work.

Read-outs that look alike come from different tables or passages of the source.

T1 sequence (Q01726 whole entry): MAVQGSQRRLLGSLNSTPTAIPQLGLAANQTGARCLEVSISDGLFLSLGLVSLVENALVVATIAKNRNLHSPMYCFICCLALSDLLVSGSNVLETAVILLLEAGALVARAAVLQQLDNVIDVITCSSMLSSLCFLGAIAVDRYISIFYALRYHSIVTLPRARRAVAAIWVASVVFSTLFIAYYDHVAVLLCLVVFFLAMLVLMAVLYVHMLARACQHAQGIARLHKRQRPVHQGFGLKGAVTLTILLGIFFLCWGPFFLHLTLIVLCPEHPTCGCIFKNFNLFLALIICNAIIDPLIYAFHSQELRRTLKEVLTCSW
Method for human MC1R: Competitive binding assays were performed on whole cells. Stably transfected HEK293 cell lines overexpressing human MC1R, MC3R, MC4R or MC5R were seeded on 96-well plates 48 h before the assay and grown to 100,000 cells per well. For the assay, the medium was removed, and cells were washed twice with a binding buffer containing minimum essential medium with Earle's salt (MEM, GIBCO), 25 mM HEPES (pH 7.4), 0.2% bovine serum albumin, 1 mM 1,10-phenanthrolone, 0.5 mg/L leupeptin and 200 mg/L bacitracin. Cells were incubated with different concentrations of unlabeled test compounds and ^125I labelled NDP-α-MSH (PerkinElmer, 100,000 cpm/well, 0.1386 nM) for 40 min at 37° C. The medium was subsequently removed, and the cells were washed twice with the binding buffer. The cells were lysed by 50 μL of 0.1 mM NaOH and 50 μL of 1% Triton X-100. The plates were left dry overnight under the hood, and 50 μL of scintillation fluid (OptiPhase SuperMix, PerkinElmer) were added in each well. The radioactivity was measured using MicroBeta 2 microplate counter (PerkinElmer).

Turning to `CC[C@@]1(O)C(=O)OCc2c1cc1n(c2=O)Cc2cc3ccccc3nc2-1` [CPT, camptothecin, reference compound], in data set [1], the solubility entry is “poor solubility”. Further, the half-maximal inhibitory concentration (IC50) in the data set with A375 melanoma cells (Homo sapiens, A-375) worked out at 47 ± 2 nM.

In the case of `CCCC[C@H](NC(=O)CCCCCNC(=O)[C@@H](N)CSSCCOC(=O)O[C@]1(CC)C(=O)OCc2c1cc1n(c2=O)Cc2cc3ccccc3nc2-1)C(=O)N[C@H]1CC(=O)NCCCC[C@@H](C(N)=O)NC(=O)[C@H](Cc2c[nH]c3ccccc23)NC(=O)[C@H](CCCNC(=N)N)NC(=O)[C@@H](Cc2ccccc2)NC(=O)[C@H](Cc2c[nH]cn2)NC1=O` [CPT-MT-II (1)], the affinity on human MC1R (Ki MC1R) corresponds to a Ki of 57 nM. Also, at human MC1R (from Ki values), the “selectivity to MC1R as compared to MC3R, MC4R and MC5R” value is on record as 3-6 fold. Further, in the data set with A375 melanoma cells, the IC50 is 16 nM.

Turning to `CCCC[C@H](NC(=O)CCCCCNC(=O)[C@@H](N)CSSCCOC(=O)Oc1ccc2c(c1)Oc1cc(O)ccc1C21OC(=O)c2ccccc21)C(=O)N[C@H]1CC(=O)NCCCC[C@@H](C(N)=O)NC(=O)[C@H](Cc2c[nH]c3ccccc23)NC(=O)[C@H](CCCNC(=N)N)NC(=O)[C@@H](Cc2ccccc2)NC(=O)[C@H](Cc2c[nH]cn2)NC1=O` (some centres unmarked) [fluorescein-MT-II (2)], on human MC1R (read-out: Ki MC1R), the Ki came out at 172 nM. Further, the “displacement of NDP-α-MSH from MC1R” value is “fully displace” at human MC1R and “fully displace NDP-α-MSH” on human MC1R (listed as fluorescein-MT-II). Moreover, in data set [2], the “fluorescence uptake by HEK293 cells compared to A375 cells” value was “much weaker fluorescence intensity”. Besides, the “fluorescence uptake by A375 cells” value in data set [3] (3 μM with 30 μM of MT-II, 2.5 h) is listed as “not observed”; in data set [3] (3 μM, 0.5 h) it was “No significant fluorescence uptake”; in data set [3] (3 μM, 2.5 h) it was “strong fluorescence”. Besides, the “time for release of fluorescein into A375” value in data set [3] (confocal microscopy) is “at least 90 minutes”.

For α-MSH, in data set [4], the half-life result was “around 10 minutes”.
